Reference: patent publication US20050008623A1, “In vitro production of dendritic cells from CD14+ monocytes” (priority 2001, published 2005)

Experiments:
Assay type in all cases: cell-based, human
[1] = tested on: Langerhans cells generated in vitro; test: Chemoattraction and migration of Langerhans cells of Example 6
[2] = tested on: dendritic cells generated in vitro (CCR6 receptor); test: Chemoattraction of undifferentiated immature dendritic cells (CCR6 functionality); details: day 6 cells of Example 4
Protocol: The culture medium is initially supplemented with a third cytokine, namely the cytokine IL-13 at a rate of 10 ng/ml. Before 2 days of culture at the most, the same culture medium devoid of IL-13 is added up to day 6 of culture.

IDC (DC-SIGN+) = test: Maturation marker DC-LAMP expression after TNFα, interstitial dendritic cells; details: 200 IU/ml for 48 hours from day 6
Protocol: (§1) On day 6, the cytokine TNFα is added at a rate of 200 IU/ml for 48 h.
(§2) The advantage of a substantially homogeneous dual population of LC and IDC is the possibility of interacting with both cell types as in the in vivo situation. To study the maturation pathways of LC and IDC generated in vitro, we analyzed the intracytoplasmic expression of maturation marker DC-LAMP on both LC and IDC. To this end, the experiments were performed according to the following protocol: • 2.10^5 cells of a mixed population comprising LC and IDC generated in vitro are incubated successively with: • either 5 microliters of anti-DC-SIGN antibody (2 micrograms/milliliter) or 10 microliters of anti-Langerin antibody (2 micrograms/milliliter), for 30 minutes at 4° C.; • 10 microliters of anti-mouse goat antibody coupled with the fluorochrom FITC (Fluorescein IsoThioCyanate) at the concentration of 1 microgram/milliliter for 30 min at 4° C.; • blocking with normal mouse serum diluted to 1/20; • 10 microliters of anti-DC-LAMP antibody coupled with fluorochrom PE (PhycoErythrin) at the concentration of 1 microgram/milliliter for 30 minutes at 4° C. • the results are expressed as the percentage of LC which are DC-LAMP positive and IDC which are DC-LAMP positive. […]

Langerin+LC population = test: Maturation marker DC-LAMP expression after TNFα, Langerhans cells; details: 200 IU/ml for 48 hours from day 6
Protocol: as §1, §2

[3] = tested on: dendritic cells generated in vitro (CCR7 receptor); test: Chemoattraction of activated mature dendritic cells (CCR7 functionality); details: activated mature cells of Example 8 (TNFα more than 20 hours)
Protocol: Within the framework of the invention, the culture medium is initially supplemented with a third cytokine, namely the cytokine IL-13 at a rate of 10 ng/ml. The culture is carried out up to day 6, irrespective of the incubation time of the cytokine IL-13.

Molecule: IL-1β: cytokine under whose effect Langerhans cells migrate
- migration of Langerhans cells [1]: migrating

Molecule: MIP-3α: ligand of the specific receptor CCR6
- chemoattraction of dendritic cells [2]: strongly chemoattracted
- chemoattraction of Langerhans cells [1]: capable of being chemoattracted

Molecule: TNFα
- expression of maturation marker DC-LAMP on IDC (IDC (DC-SIGN+)): do not express
- percentage of LC which are DC-LAMP positive (Langerin+LC population): 50%

B1: MIP-3β: ligand of the specific receptor CCR7 (protein, UniProt Q99731 22-98, looked up)
C-C motif chemokine 19: GTNDAEDCCLSVTQKPIPGYIVRNFHYLLIKDGCRVPAVVFTTLRGRQLCAPPDQPWVERIIQRLQRTSAKMKRRSS
- chemoattraction of dendritic cells [3]: strongly chemoattracted
